In test [1] the target is T1, α3β3γ complex of BF1 (F1-ATPase from Bacillus subtilis) (Bacillus subtilis, UniProt P37808+P37809).
T1 construct: gene atpD; recombinant α3β3γ subcomplex without δ and ε; His6-tag at N-terminus of β (kept); initiation codons of α and γ changed to ATG; expressed in E. coli BL21(DE3) from pET21-BF1; nucleotide-free; with ATP synthase gamma chain
Put plainly: residual initial ATPase activity ([…]-4 s) after preincubation with MgADP. The settings on record: read-out: % inhibition at 1:1 MgADP (5 μM). Type of test: biochemical.

In test [2] the target is T2, α3β3γε complex of BF1 (F1-ATPase from Bacillus subtilis) (Bacillus subtilis, UniProt P37808+P37809).
T2 construct: gene atpD; recombinant α3β3γ (His6-tag at N-terminus of β, kept) reconstituted with excess separately purified BF1 ε subunit; no δ; E. coli expression; with ATP synthase gamma chain; ATP synthase epsilon chain
T2 sequence (P37812 whole entry): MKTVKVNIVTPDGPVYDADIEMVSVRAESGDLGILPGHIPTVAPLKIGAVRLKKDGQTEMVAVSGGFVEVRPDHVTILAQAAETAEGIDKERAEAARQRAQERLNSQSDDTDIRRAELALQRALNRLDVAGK
T2 sequence (P37809 whole entry): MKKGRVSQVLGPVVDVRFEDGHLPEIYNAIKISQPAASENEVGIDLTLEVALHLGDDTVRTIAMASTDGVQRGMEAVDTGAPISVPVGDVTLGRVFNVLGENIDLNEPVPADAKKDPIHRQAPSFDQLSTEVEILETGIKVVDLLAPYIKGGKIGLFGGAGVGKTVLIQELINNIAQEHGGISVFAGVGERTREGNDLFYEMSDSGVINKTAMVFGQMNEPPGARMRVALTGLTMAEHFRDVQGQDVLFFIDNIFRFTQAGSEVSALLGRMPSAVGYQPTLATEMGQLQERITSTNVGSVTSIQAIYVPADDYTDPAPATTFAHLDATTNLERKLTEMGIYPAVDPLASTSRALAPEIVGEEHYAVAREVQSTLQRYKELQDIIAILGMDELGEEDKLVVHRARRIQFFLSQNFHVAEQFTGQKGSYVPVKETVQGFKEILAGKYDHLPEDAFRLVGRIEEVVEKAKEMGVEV
T2 sequence (P37808 2-502): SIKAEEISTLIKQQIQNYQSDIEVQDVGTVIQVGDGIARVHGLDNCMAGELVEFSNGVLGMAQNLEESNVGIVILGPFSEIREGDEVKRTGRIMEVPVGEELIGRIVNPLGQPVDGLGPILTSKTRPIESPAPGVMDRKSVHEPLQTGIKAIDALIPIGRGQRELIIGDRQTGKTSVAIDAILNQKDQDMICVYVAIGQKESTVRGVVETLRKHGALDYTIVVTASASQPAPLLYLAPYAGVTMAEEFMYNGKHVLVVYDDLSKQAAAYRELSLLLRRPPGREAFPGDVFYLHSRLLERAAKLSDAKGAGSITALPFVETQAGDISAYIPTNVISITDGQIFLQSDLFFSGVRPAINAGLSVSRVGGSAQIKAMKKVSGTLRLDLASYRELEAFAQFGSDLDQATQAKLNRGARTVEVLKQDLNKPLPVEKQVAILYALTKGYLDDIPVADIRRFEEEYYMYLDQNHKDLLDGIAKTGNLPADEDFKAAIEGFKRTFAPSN
T2 sequence (P37810 whole entry, further chain): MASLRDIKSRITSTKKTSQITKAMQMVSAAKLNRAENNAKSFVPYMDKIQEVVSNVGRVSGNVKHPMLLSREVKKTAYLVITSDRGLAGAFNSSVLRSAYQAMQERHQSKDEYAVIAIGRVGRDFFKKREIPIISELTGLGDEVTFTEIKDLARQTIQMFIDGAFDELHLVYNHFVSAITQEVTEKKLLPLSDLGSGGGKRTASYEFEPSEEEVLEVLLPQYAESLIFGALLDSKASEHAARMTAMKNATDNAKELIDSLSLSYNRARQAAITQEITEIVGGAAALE
Described as above. Type of test: biochemical. To be noted: read-out: % inhibition at 1:1 MgADP (5 μM).

The term inhibition denotes the drop in the measured response relative to a control, in per cent.

T1 sequence (P37809 whole entry): as the sequence (P37809 whole entry) above
T1 sequence (P37808 2-502): as the sequence (P37808 2-502) above
T1 sequence (P37810 whole entry, further chain): as the sequence (P37810 whole entry, further chain) above

`Nc1ncnc2c1ncn2[C@@H]1O[C@H](COP(=O)(O)OP(=O)(O)O)[C@@H](O)[C@H]1O` [MgADP]: the results for the inhibition at 5 µM in test [1] and in test [2] were around 50% and around 20%, respectively.

These data come from publication PMC3742539, “ε Subunit of Bacillus subtilis F1-ATPase Relieves MgADP Inhibition” (PLoS ONE, 2013).
